Results from ChEMBL document CHEMBL1137635, “Multiple antibiotics exert delayed effects against the Plasmodium falciparum apicoplast” (Antimicrob Agents Chemother, 2007).
Calls of active or inactive are those of the source. The rule behind the calls is not given here.

What was measured:
Plasmodium falciparum [1] = assay: Antimalarial activity as 2nd generation ring-stage chloroquine-sensitive Plasmodium falciparum 3D7 after 48 hrs by flow cytometry; type: functional, organism-based; settings: 3D7, 48 h
Plasmodium falciparum [2] = assay: Antimalarial activity as 3rd generation ring-stage chloroquine-sensitive Plasmodium falciparum 3D7 after 48 hrs dose then 48 hrs drug-free; type: functional, organism-based; settings: 3D7, 48 h
Plasmodium falciparum [3] = assay: Antimalarial activity as 2nd generation ring-stage chloroquine-resistant Plasmodium falciparum W2 after 48 hrs by flow cytometry; type: functional, organism-based; settings: W2, 48 h
Plasmodium falciparum [4] = assay: Antimalarial activity as 3rd generation ring-stage chloroquine-resistant Plasmodium falciparum W2 after 48 hrs dose then 48 hrs drug-free; type: functional, organism-based; settings: W2, 48 h
Plasmodium falciparum [5] = assay: Antimalarial activity as segregation of apicoplasts against chloroquine-sensitive Plasmodium falciparum 3D7 infected in human erythrocytes at 6 uM 96 hrs post infection; type: functional, organism-based
Plasmodium falciparum [6] = assay: Antimalarial activity as segregation of apicoplasts against chloroquine-sensitive ACP1-GFP-labeled Plasmodium falciparum 3D7 schizont infected human erythrocytes at 6 uM 96 hrs post infection; type: functional, organism-based
Plasmodium falciparum [7] = assay: Antimalarial activity as schizont arrest after 48 hrs in chloroquine-sensitive Plasmodium falciparum 3D7 infected human erythrocytes at 6 uM 96 hrs post invasion by Giemsa staining; type: functional, organism-based
Plasmodium falciparum [8] = assay: Antimalarial activity as abnormal apicoplast morphology in chloroquine-sensitive ACP1-GFP-labeled Plasmodium falciparum 3D7 trophozoite infected human erythrocytes at 2xIC50 dosed 96 hrs post infection; type: functional
Plasmodium falciparum [9] = assay: Antimalarial activity as parasitaemia against chloroquine-sensitive ACP1-GFP-labeled Plasmodium falciparum 3D7 trophozoite infected human erythrocytes at 2xIC50 dosed 96 hrs post infection; type: functional
[10] = Cmax in patient with bronchitis at 500 mg, po twice daily for 3 days; settings: human, in vivo
[11] = Tmax in patient with bronchitis at 500 mg, po twice daily for 3 days; settings: human, in vivo
Plasmodium falciparum [12] = assay: Antimalarial activity as 3rd generation parasitaemia against chloroquine-sensitive Plasmodium falciparum 3D7 infected human erythrocytes after 96hrs at 6 uM dosed 0-12 hrs post infection; type: functional
Plasmodium falciparum [13] = assay: Antimalarial activity as 3rd generation parasitaemia against chloroquine-sensitive Plasmodium falciparum 3D7 infected human erythrocytes after 96hrs at 6 uM dosed 0-24 hrs post infection; type: functional
Plasmodium falciparum [14] = assay: Antimalarial activity as 3rd generation parasitaemia against chloroquine-sensitive Plasmodium falciparum 3D7 infected human erythrocytes after 96hrs at 6 uM dosed 0-36 hrs post infection; type: functional
Plasmodium falciparum [15] = assay: Antimalarial activity as 3rd generation parasitaemia against chloroquine-sensitive Plasmodium falciparum 3D7 infected human erythrocytes after 96hrs at 6 uM dosed 12-24 hrs post infection; type: functional
Plasmodium falciparum [16] = assay: Antimalarial activity as 3rd generation parasitaemia against chloroquine-sensitive Plasmodium falciparum 3D7 infected human erythrocytes after 96hrs at 6 uM dosed 12-36 hrs post infection; type: functional
Plasmodium falciparum [17] = assay: Antimalarial activity as 3rd generation parasitaemia against chloroquine-sensitive Plasmodium falciparum 3D7 infected human erythrocytes after 96hrs at 6 uM dosed 12-48 hrs post infection; type: functional
Plasmodium falciparum [18] = assay: Antimalarial activity as 3rd generation parasitaemia against chloroquine-sensitive Plasmodium falciparum 3D7 infected human erythrocytes after 96hrs at 6 uM dosed 24-36 hrs post infection; type: functional
Plasmodium falciparum [19] = assay: Antimalarial activity as 3rd generation parasitaemia against chloroquine-sensitive Plasmodium falciparum 3D7 infected human erythrocytes after 96hrs at 6 uM dosed 24-48 hrs post infection; type: functional
Plasmodium falciparum [20] = assay: Antimalarial activity as 3rd generation parasitaemia against chloroquine-sensitive Plasmodium falciparum 3D7 infected human erythrocytes after 96hrs at 6 uM dosed 36-48 hrs post infection; type: functional
Plasmodium falciparum [21] = assay: Antimalarial activity as 3rd generation after 96 hrs against chloroquine-sensitive Plasmodium falciparum 3D7 infected human erythrocytes at 6 uM 0-48 hrs post invasion; type: functional
Plasmodium falciparum [22] = assay: Antimalarial activity as 3rd generation parasitaemia against chloroquine-sensitive Plasmodium falciparum 3D7 infected human erythrocytes after 96 hr at 25 nM dosed 24-48 hrs post infection; type: functional
Plasmodium falciparum [23] = assay: Antimalarial activity as 3rd generation parasitaemia after 96 hrs against chloroquine-sensitive Plasmodium falciparum 3D7 infected human erythrocytes at 25 nM 36-48 hrs post invasion; type: functional
Plasmodium falciparum [24] = assay: Antimalarial activity as segregation of apicoplasts against chloroquine-sensitive Plasmodium falciparum 3D7 infected human erythrocytes at 25 nM 96 hrs post infection; type: functional, organism-based
Plasmodium falciparum [25] = assay: Antimalarial activity as arrested schizont maturation in chloroquine-sensitive Plasmodium falciparum 3D7 infected human erythrocytes after 48 hrs at 25 nM dosed 96 hrs post infection; type: functional, organism-based
Plasmodium falciparum [26] = assay: Antimalarial activity as segregation of apicoplast in chloroquine-sensitive ACP1-GFP-labeled Plasmodium falciparum 3D7 schizont infected human erythrocytes at 25 nM dosed 96 hrs post infection; type: functional, organism-based
Plasmodium falciparum [27] = assay: Antimalarial activity as abnormal apicoplast morphology in chloroquine-sensitive ACP1-GFP-labeled Plasmodium falciparum 3D7 after 48 hrs at 2xIC50 dosed 96 hrs post infection; type: functional, organism-based
Plasmodium falciparum [28] = assay: Antimalarial activity in chloroquine-sensitive ACP1-GFP-labeled Plasmodium falciparum 3D7 after 48 hrs at 2xIC50 dosed 96 hrs post infection; type: functional, organism-based
Plasmodium falciparum [29] = assay: Antimalarial activity as 3rd generation parasitaemia against chloroquine-sensitive Plasmodium falciparum 3D7 infected human erythrocytes after 96hrs at 25 nM dosed 0-12 hrs post infection; type: functional
Plasmodium falciparum [30] = assay: Antimalarial activity as 3rd generation parasitaemia against chloroquine-sensitive Plasmodium falciparum 3D7 infected human erythrocytes after 96hrs at 25 nM dosed 0-24 hrs post infection; type: functional
Plasmodium falciparum [31] = assay: Antimalarial activity as 3rd generation parasitaemia against chloroquine-sensitive Plasmodium falciparum 3D7 infected human erythrocytes after 96hrs at 25 nM dosed 0-36 hrs post infection; type: functional
Plasmodium falciparum [32] = assay: Antimalarial activity as 3rd generation parasitaemia against chloroquine-sensitive Plasmodium falciparum 3D7 infected human erythrocytes after 96hrs at 25 nM dosed 0-48 hrs post infection; type: functional
Plasmodium falciparum [33] = assay: Antimalarial activity as 3rd generation parasitaemia against chloroquine-sensitive Plasmodium falciparum 3D7 infected human erythrocytes after 96hrs at 25 nM dosed 12-24 hrs post infection; type: functional
Plasmodium falciparum [34] = assay: Antimalarial activity as3rd generation parasitaemia against chloroquine-sensitive Plasmodium falciparum 3D7 infected human erythrocytes after 96 hrs at 25 nM dosed 12-36 hrs post infection; type: functional
Plasmodium falciparum [35] = assay: Antimalarial activity as 3rd generation parasitaemia against chloroquine-sensitive Plasmodium falciparum 3D7 infected human erythrocytes after 96hrs at 25 nM dosed 12-48 hrs post infection; type: functional
Plasmodium falciparum [36] = assay: Antimalarial activity as 3rd generation parasitaemia against chloroquine-sensitive Plasmodium falciparum 3D7 infected human erythrocytes after 96hrs at 25 nM dosed 24-36 hrs post infection; type: functional

O=C(O)c1cn(C2CC2)c2cc(N3CCNCC3)c(F)cc2c1=O [CIPROFLOXACIN]
IC50 (Plasmodium falciparum [1]): 9.44 µM
IC50 (Plasmodium falciparum [2]): 3040 nM
IC50 (Plasmodium falciparum [3]): 24.9 µM
IC50 (Plasmodium falciparum [4]): 1750 nM
Activity (Plasmodium falciparum [5]): Active
Activity (Plasmodium falciparum [6]): Active
Activity (Plasmodium falciparum [7]): inactive
Activity (Plasmodium falciparum [8]): 81.4%
Activity (Plasmodium falciparum [9]): 98.6%
Cmax at 72 h [10]: 7.6 µM
Tmax at 72 h [11]: 36 min
Activity (Plasmodium falciparum [12]): 80%
Activity (Plasmodium falciparum [13]): 67%
Activity (Plasmodium falciparum [14]): 35%
Activity (Plasmodium falciparum [15]): 63%
Activity (Plasmodium falciparum [16]): 23%
Activity (Plasmodium falciparum [17]): 24%
Activity (Plasmodium falciparum [18]): 70%
Activity (Plasmodium falciparum [19]): 74%
Activity (Plasmodium falciparum [20]): 108%
Activity (Plasmodium falciparum [21]): 13%

CCC[C@@H]1C[C@@H](C(=O)N[C@@H]([C@H]2O[C@H](SC)[C@H](O)[C@@H](O)[C@H]2O)[C@H](C)Cl)N(C)C1 [CLINDAMYCIN]
Activity (Plasmodium falciparum [22]): 78%
Activity (Plasmodium falciparum [23]): 63%
IC50 (Plasmodium falciparum [1]): > 100 µM
IC50 (Plasmodium falciparum [2]): 8.81 nM
IC50 (Plasmodium falciparum [3]): > 100 µM
IC50 (Plasmodium falciparum [4]; read-out: IC50): 3.12 nM
Activity (Plasmodium falciparum [24]): Active
Activity (Plasmodium falciparum [25]): inactive
Activity (Plasmodium falciparum [8]): 85.2%
Activity (Plasmodium falciparum [9]): 99.3%
Activity (Plasmodium falciparum [26]): Active
Activity (Plasmodium falciparum [27]): Active
Activity (Plasmodium falciparum [28]): Active
Activity (Plasmodium falciparum [29]): 87%
Activity (Plasmodium falciparum [30]): 49%
Activity (Plasmodium falciparum [31]): 21%
Activity (Plasmodium falciparum [32]): 11%
Activity (Plasmodium falciparum [33]): 41%
Activity (Plasmodium falciparum [34]): 15%
Activity (Plasmodium falciparum [35]): 19%
Activity (Plasmodium falciparum [36]): 52%
